From patent US10913736B2 (UNIVERSITY OF WASHINGTON, priority 2014, dated 2021)
≈ marks a conversion by molar mass, not a printed value. Where “and” joins values, the source holds several entries; their conditions need not be identical. Equal entries are not always repeated. Where two headings read alike, the source gives them in different places.

Tests used:
[1] = test system: S. aureus MRSA (ATCC 43300); experiment: S. aureus MRSA (ATCC 43300) MIC/EC50; format: cell-based; details: Staphylococcus aureus; S. aureus MRSA ATCC 43300; read-out: J) S. aureus MRSA (ATCC 43300) MIC/EC50, MIC
T. brucei = experiment: Growth inhibition assay of T. brucei cell cultures (Alamar Blue, 48 h); format: cell-based
T. cruzi = T. cruzi growth inhibition EC50; format: cell-based; details: Trypanosoma cruzi; read-out: C) T. cruzi EC50
S. aureus (ATCC 29213) = S. aureus (ATCC 29213) MIC/EC50; format: cell-based; details: Staphylococcus aureus, ATCC29213; S. aureus ATCC 29213; read-out: I) S. aureus (ATCC 29213) MIC/EC50, MIC
MetRS (S. aureus) = MetRS (S. aureus) (Staphylococcus aureus, UniProt Q5HII6); experiment: biochemical; details: ATP depletion, Kinase-Glo; read-out: H) MetRS (S. aureus) ATP depletion assay using Kinase-Glo with modified cpd dilution method, IC50
MetRS (S. aureus), sequence (Q5HII6 whole entry): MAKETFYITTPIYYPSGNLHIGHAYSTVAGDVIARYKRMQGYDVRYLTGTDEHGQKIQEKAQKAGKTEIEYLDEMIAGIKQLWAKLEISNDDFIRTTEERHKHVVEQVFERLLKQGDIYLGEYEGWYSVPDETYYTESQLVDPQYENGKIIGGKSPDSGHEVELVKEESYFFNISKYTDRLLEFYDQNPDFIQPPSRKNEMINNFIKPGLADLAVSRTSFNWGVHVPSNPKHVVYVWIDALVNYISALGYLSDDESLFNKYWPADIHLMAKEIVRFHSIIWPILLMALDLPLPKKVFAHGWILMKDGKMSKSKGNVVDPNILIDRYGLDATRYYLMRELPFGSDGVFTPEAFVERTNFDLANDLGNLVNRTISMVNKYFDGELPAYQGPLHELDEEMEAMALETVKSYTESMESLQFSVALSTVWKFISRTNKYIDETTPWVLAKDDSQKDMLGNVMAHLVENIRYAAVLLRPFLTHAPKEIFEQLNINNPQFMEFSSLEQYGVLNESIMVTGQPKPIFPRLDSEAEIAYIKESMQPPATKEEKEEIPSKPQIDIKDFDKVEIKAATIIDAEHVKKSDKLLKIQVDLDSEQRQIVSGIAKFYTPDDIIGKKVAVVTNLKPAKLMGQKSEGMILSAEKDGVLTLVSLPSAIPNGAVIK

MetRS (T. brucei) = MetRS (T. brucei) (Trypanosoma brucei brucei, UniProt Q38C91); experiment: MetRS (T. brucei) ATP depletion assay using Kinase-Glo; format: biochemical
MetRS (T. brucei), sequence (Q38C91 entry or part of it): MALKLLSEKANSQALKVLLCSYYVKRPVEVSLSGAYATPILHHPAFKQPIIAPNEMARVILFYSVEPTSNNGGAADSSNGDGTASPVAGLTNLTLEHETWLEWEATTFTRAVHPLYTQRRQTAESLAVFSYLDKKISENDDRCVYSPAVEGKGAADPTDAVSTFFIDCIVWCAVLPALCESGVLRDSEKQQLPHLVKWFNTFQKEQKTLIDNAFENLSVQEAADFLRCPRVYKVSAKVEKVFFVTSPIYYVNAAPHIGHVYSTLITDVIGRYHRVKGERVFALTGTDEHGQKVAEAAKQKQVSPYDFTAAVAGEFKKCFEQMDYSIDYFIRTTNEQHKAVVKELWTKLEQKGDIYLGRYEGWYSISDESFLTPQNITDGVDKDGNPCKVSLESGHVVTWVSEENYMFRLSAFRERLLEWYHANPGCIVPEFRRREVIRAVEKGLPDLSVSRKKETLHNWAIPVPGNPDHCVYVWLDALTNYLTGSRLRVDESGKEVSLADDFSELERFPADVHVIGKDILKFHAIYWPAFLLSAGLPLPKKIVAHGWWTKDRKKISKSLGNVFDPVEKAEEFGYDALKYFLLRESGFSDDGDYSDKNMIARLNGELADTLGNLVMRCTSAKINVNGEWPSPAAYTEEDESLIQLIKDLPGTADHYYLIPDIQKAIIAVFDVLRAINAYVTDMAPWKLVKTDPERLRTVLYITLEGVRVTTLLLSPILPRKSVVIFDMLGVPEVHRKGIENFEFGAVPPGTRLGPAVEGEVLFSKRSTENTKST

L. amaz = L. amaz growth inhibition EC50; format: cell-based; details: read-out: F) L. amaz EC50
[2] = Trypanosoma brucei; read-out: B) T. brucei EC50

SMILES	MIC [1] [µg/mL]	EC50 (T. brucei; [2]) [nM]	EC50 (T. cruzi) [nM]	MIC (S. aureus (ATCC 29213)) [µg/mL]	IC50 (MetRS (S. aureus)) [nM]	IC50 (MetRS (T. brucei))	EC50 (L. amaz) [nM]	EC50 (T. brucei; read-out: B) T. brucei EC50) [nM]
O=c1c(NCc2nc3ccccc3[nH]2)c(NCc2ccc(Cl)cc2Cl)c1=O [Compound 1769, 3-[(H-Benzoimidazol-2-ylmethyl)-amino]-4-(2,4-dichloro-benzylamino)-cyclobut-3-ene-1,2-dione]	> 10	1070	> 5000	> 10	95	11 nM	–	–
Clc1cc(Cl)cc(CNCCc2nc3ccc(Cl)cc3[nH]2)c1 [Compound 1767, [2-(6-chloro-1H-1,3-benzodiazol-2-yl)ethyl][(3,5-dichlorophenyl)methyl]amine]	10 (≈ 28.2 µM)	627	2930	> 10	> 1000	51 nM	–	–
FC(F)(CNCc1cc(Cl)cc(Cl)c1)CNc1nc2cccnc2[nH]1 [Compound 1708, [(3,5-dichlorophenyl)methyl][2,2-difluoro-3-({3H-imidazo[4,5-b]pyridin-2-yl}amino)propyl]amme]	–	1560	> 5000	–	88	11 nM	> 1000	893
O=C(Cc1cc(Cl)cc(Cl)c1)N1CCCC(c2nc3cc(Cl)ccc3[nH]2)C1 (stereo not shown) [Compound 1734, 1-(3-(5-chloro-1H-benzo[d]imidazol-2-yl)piperidin-1-yl)-2-(3,5-dichlorophenyl) ethanone]	> 10	1400	4910	> 10	2440	60 nM	–	–
Clc1cc(Br)cc(CN[C@H]2CCCN(c3nc4nc(Cl)ccc4[nH]3)C2)c1 [Compound 1912, (S)—N-(3-bromo-5-chlorobenzyl)-1-(5-chloro-1H-imidazo[4,5-b]pyridin-2-yl)piperidin-3-amine]	–	70.6	2250	–	–	8 nM	7730	–
O=c1[nH]c(Cc2ccc(Cl)cc2Cl)cn1Cc1nc2ccccc2[nH]1 [Compound 1907, 3-((1H-benzo[d]imidazol-2-yl)methyl)-5-(2,4-dichlorobenzyl)-1H-imidazol-2(3H)-one]	–	346	7670	–	54	19 nM	> 1000	–
Clc1cc(Cl)cc(CNCCNc2nc3ccc(Cl)nc3[nH]2)c1 [Compound 1849, [2-({5-chloro-3H-imidazo[4,5-b]pyridin-2-yl}amino)ethyl][(3,5-dichlorophenyl)methyl]amine]	–	60.7	1810	–	3110	33 nM	–	–
O=C(Cc1cc(Cl)cc(Cl)c1)N1CCCC(c2nc3nc(Cl)ccc3[nH]2)C1 (stereo not shown) [Compound 1762, 1-(3-(5-chloro-1H-imidazo[4,5-b]pyridin-2-yl)piperidin-1-yl)-2-(3,5-dichlorophenyl)ethanone]	> 10	1060	–	> 10	2880	28 nM	–	–
COc1ccc(Oc2nc(NCc3nc4ccc(F)nc4[nH]3)nc(NCc3nc4ccc(F)nc4[nH]3)n2)c(Cl)c1 [Compound 1883, 6-(2-chloro-4-methoxyphenoxy)-2-N,4-N-bis({5-fluoro-3H-imidazo[4,5-b]pyridin-2-yl}methyl)-1,3,5-triazine-2,4-diamine]	–	5620	17400	–	333	39 nM	–	3670
Clc1cc(Cl)cc(CN[C@H]2CCCN(c3nc4nc(Cl)ccc4[nH]3)C2)c1 [Compound 1856, (S)-1-(5-chloro-1H-imidazo[4,5-b]pyridin-2-yl)-N-(3,5-dichlorobenzyl) piperidin-3-amine]	–	38.7	1470	–	365	19 nM	4350	–
COc1ccc(Oc2cc(NCc3nc4ccc(F)nc4[nH]3)nc(N3CCN(c4cnccn4)CC3)n2)c(Cl)c1 [Compound 1797, 6-(2-chloro-4-methoxyphenoxy)-N-((5-fluoro-3H-imidazo[4,5-b]pyridin-2-yl)methyl)-2-(4-(pyrazin-2-yl)piperazin-1-yl)pyrimidin-4-amine]	–	–	432	–	2	23 nM	> 1000	–
Clc1cc(Cl)cc(CNCC2CCCN2c2nc3nc(Cl)ccc3[nH]2)c1 (stereo not shown) [Compound 1916, 1-(1-(5-chloro-1H-imidazo[4,5-b]pyridin-2-yl)pyrrolidin-2-yl)-N-(3,5-dichlorobenzyl)methanamine]	–	480	–	–	–	58 nM	9550	–
COc1ccc(Oc2ccnc(NCc3nc4ccccc4[nH]3)c2)c(Cl)c1 [Compound 1933, N-((1H-benzo[d]imidazol-2-yl)methyl)-4-(2-chloro-4-methoxyphenoxy)pyridin-2-amine]	–	102	1710	–	40	22 nM	–	–
O=C(Cc1cc(Cl)cc(Cl)c1)N1CCC[C@H](c2nc3cc(Cl)ccc3[nH]2)C1 [Compound 1758, (S)-1-(3-(5-chloro-1H-benzo[d]imidazol-2-yl)piperidin-1-yl)-2-(3,5-dichlorophenyl)ethanone]	> 10	4650	–	> 10	1040	31 nM	–	–
COc1c(Cl)cc(Cl)cc1CN[C@H]1CCCN(c2nc3nc(Cl)ccc3[nH]2)C1 [Compound 1911, (S)-1-(5-chloro-1H-imidazo[4,5-b]pyridin-2-yl)-N-(3,5-dichloro-2-methoxybenzyl)piperidin-3-amine]	–	357	–	–	–	21 nM	5150	–
CCOc1c(Br)cc(Br)cc1CN[C@H]1CCCN(c2nc3nc(Cl)ccc3[nH]2)C1 [Compound 1910, (S)-1-(5-chloro-1H-imidazo[4,5-b]pyridin-2-yl)-N-(3,5-dibromo-2-ethoxybenzyl)piperidin-3-amine]	–	39.5	934	–	22	19 nM	–	–
O=C(NCc1nc2ccc(F)nc2[nH]1)OCCc1ccc(Cl)cc1Cl [Compound 1707, 2-(2,4-dichlorophenyl)ethyl N-({5-fluoro-3H-imidazo[4,5-b]pyridin-2-yl}methyl)carbamate]	–	1610	> 10000	–	37	26 nM	> 1000	–
Fc1ccc2[nH]c(N3CCC[C@H](NCc4cc(Cl)cc(Cl)c4)C3)nc2n1 [Compound 1900, (S)—N-(3,5-dichlorobenzyl)-1-(5-fluoro-1H-imidazo[4,5-b]pyridin-2-yl)piperidin-3-amine]	–	128	2240	–	303	27 nM	–	> 200
CN(CCNCc1cc(Cl)cc(Cl)c1)c1nc2nc(F)ccc2[nH]1 [Compound 1913, N-(2-{[(3,5-dichlorophenyl)methyl]amino}ethyl)-5-fluoro-N-methyl-1H-imidazo[4,5-b]pyridin-2-amine]	–	113	–	–	691	26 nM	> 1000	–
CN(CCNCc1cc(Cl)cc(Cl)c1)c1nc2ccc(Cl)nc2[nH]1 [Compound 1893, N-(2-(3,5-dichlorobenzylamino)ethyl)-5-chloro-N-methyl-1H-imidazo[4,5-b]pyridin-2-amine]	–	14.8	340	–	296	8 nM	3780	28.2
CN(CCN[C@@H]1CCNc2c(Cl)cc(Cl)cc21)c1nc2nc(F)ccc2[nH]1 [Compound 1919, (R)—N1-(6,8-dichloro-1,2,3,4-tetrahydroquinolin-4-yl)-N2-(5-fluoro-1H-imidazo[4,5-b]pyridin-2-yl)-N2-methylethane-1,2-diamine]	–	6.31	88.8	–	328	15 nM	1640	9.45
CC(=O)N(CCN(C)c1nc2ccc(Cl)nc2[nH]1)Cc1cc(Cl)cc(Cl)c1 [Compound 1926, N-(3,5-dichlorobenzyl)-N-(2-(5-chloro-N-methyl-1H-imidazo[4,5-b]pyridin-2-ylamino)ethyl)acetamide]	–	75.5	1330	–	172	20 nM	–	–
COc1ccc(Oc2cc(NCc3nc4ccc(F)nc4[nH]3)nc(Cl)n2)c(Cl)c1 [Compound 1796, 6-(2-chloro-4-methoxyphenoxy)-2-chloro-N-((5-fluoro-3H-imidazo[4,5-b]pyridin-2-yl)methyl)pyrimidin-4-amine]	–	–	521	–	55	17 nM	> 1000	–
C[C@@H](Cc1nc2ccc(Cl)cc2[nH]1)NCc1cc(Cl)cc(Cl)c1 [Compound 1805, [(2S)-1-(6-chloro-1H-1,3-benzodiazol-2-yl)propan-2-yl][(3,5-dichlorophenyl)methyl]amine]	–	1690	5610	–	> 1000	56 nM and 27 nM	–	–
Clc1cc(Cl)cc(NCC2CCCN(c3nc4nc(Cl)ccc4[nH]3)C2)c1 (stereo not shown) [Compound 1862, 3,5-dichloro-N-((1-(5-chloro-1H-imidazo[4,5-b]pyridin-2-yl)piperidin-3-yl)methyl)aniline]	–	343	4920	–	754	31 nM	–	–
CN(CCN[C@@H]1CCNc2c(Cl)cc(Cl)cc21)c1nc2nc(Cl)ccc2[nH]1 [Compound 1917, 5-chloro-N-(2-{[(4R)-6,8-dichloro-1,2,3,4-tetrahydroquinolin-4-yl]amino}ethyl)-N-methyl-3H-imidazo[4,5-b]pyridin-2-amine]	–	–	15.7	–	137	21 nM	663	–
